test system: Myzus persicae; experiment: Myzus persicae spray test (Chinese cabbage leaf discs); assay type: in vivo; conditions: foliar, 120 h, 500 g/ha, after 5-6 days, read-out: efficacy
Description: Myzus persicae—Spray Test Solvent: 78 parts by weight of acetone • • 1.5 parts by weight of dimethylformamide Emulsifier: alkylaryl polyglycol ether To produce a suitable preparation of active compound, 1 part by weight of active compound is dissolved using the specified parts by weight of solvent and made up with water containing an emulsifier concentration of 1000 ppm until the desired concentration is attained. To produce further test concentrations, the formulation is diluted with emulsifier-containing water. Discs of Chinese cabbage leaves (Brassica pekinensis) infested by all stages of the green peach aphid (Myzus persicae) are sprayed with an active compound preparation of the desired concentration. After 5-6 days, the efficacy in % is determined. 100% means that all the aphids have been killed; 0% means that no aphids have been killed.

SMILES	pest or weed control at 500 g/ha
Cn1cc(C(=O)NS(=O)(=O)c2cccc(C#N)c2)nc1-c1ccccc1Cl [Example 167]	90%
Cn1cc(C(=O)NS(=O)(=O)c2cc(C(F)(F)F)ccc2C(F)(F)F)nc1-c1c(F)cccc1F [Example 400]	90%
COc1ccc(Cl)c(S(=O)(=O)NC(=O)c2cnc(-c3cc(Cl)cc(Cl)c3)[nH]2)c1 [Example 224]	90%
Cn1cc(C(=O)NS(=O)(=O)CC(F)(F)F)nc1-c1c(Cl)cccc1Cl [Example 80]	90%
CCS(=O)(=O)NC(=O)c1cn(C)c(-c2ccccc2C)n1 [Example 89]	90%
Cn1cc(C(=O)NS(=O)(=O)CC(F)(F)F)nc1-c1ccccc1F [Example 90]	100%
COc1ccc(Cl)c(S(=O)(=O)NC(=O)c2cnc(-c3c(F)cccc3F)n2C)c1 [Example 160]	90%
Cn1cc(C(=O)NS(=O)(=O)c2ccccc2)nc1-c1ccccc1Cl [Example 229]	100%
COc1cccc(C(F)(F)F)c1S(=O)(=O)NC(=O)c1cn(C)c(-c2c(F)cccc2F)n1 [Example 374]	100%
COc1ccc(OC)c(S(=O)(=O)NC(=O)c2cn(C)c(-c3ncccc3F)n2)c1 [Example 608]	100%
CCS(=O)(=O)NC(=O)c1cn(C)c(-c2c(F)cccc2F)n1 [Example 86]	100%
Cn1cc(C(=O)NS(C)(=O)=O)nc1-c1c(Cl)cccc1Cl [Example 83]	90%
COc1ccccc1S(=O)(=O)NC(=O)c1cn(C)c(-c2cc(F)ccc2F)n1 [Example 526]	90%
Cc1ccccc1S(=O)(=O)NC(=O)c1cn(C)c(-c2ccccn2)n1 [Example 493]	100%
COc1ccccc1S(=O)(=O)NC(=O)c1cn(C)c(-c2ccccc2[N+](=O)[O-])n1 [Example 529]	100%
CCOc1ccccc1S(=O)(=O)NC(=O)c1cn(C)c(-c2c(F)cccc2Cl)n1 [Example 154]	90%
Cc1ccccc1S(=O)(=O)NC(=O)c1cn(C)c(-c2ccccc2OC(F)(F)F)n1 [Example 458]	90%
CCc1ccc(OC)c(S(=O)(=O)NC(=O)c2cn(C)c(-c3c(F)cccc3F)n2)c1 [Example 391]	90%
Cn1cc(C(=O)NS(=O)(=O)c2ccc(C#N)cc2)nc1-c1ccccc1Cl [Example 168]	90%
COc1cc(C)c(S(=O)(=O)NC(=O)c2cn(C)c(-c3c(F)cccc3F)n2)cc1C [Example 138]	100%
Cn1cc(C(=O)NS(=O)(=O)c2cccs2)nc1-c1c(F)cccc1F [Example 349]	100%
CCc1[nH]c(-c2cccc(OC)c2)nc1C(=O)NS(=O)(=O)c1ccccc1Cl [Example 122]	90%
Cc1[nH]c(C(=O)NS(=O)(=O)c2ccccc2Cl)nc1-c1c(F)cccc1F [Example 145]	90%
CN(C)S(=O)(=O)NC(=O)c1cn(C)c(-c2ccccc2Cl)n1 [Example 204]	100%
CS(=O)(=O)NC(=O)c1cn(-c2cccc(Cl)c2)c(-c2ccccc2Cl)n1 [Example 72]	90%
Cn1cc(C(=O)NS(=O)(=O)c2cc(F)ccc2F)nc1-c1c(F)cccc1F [Example 455]	90%
Cc1nc(Cl)sc1S(=O)(=O)NC(=O)c1cn(C)c(-c2c(F)cccc2F)n1 [Example 346]	90%
Cc1ccccc1S(=O)(=O)NC(=O)c1cn(C)c(-c2cccnc2)n1 [Example 488]	90%
Cn1cc(C(=O)NS(=O)(=O)CC(F)(F)F)nc1-c1c(F)cccc1F [Example 84]	100%
Cn1cc(C(=O)NS(C)(=O)=O)nc1-c1ccccc1Cl [Example 65]	90%

test system: Myzus persicae; experiment: Myzus persicae oral test; assay type: in vivo; conditions: 120 h, 20 ppm, oral uptake, after 5 days, read-out: efficacy
Description: Myzus persicae—Oral Test Solvent: 100 parts by weight of acetone To produce a suitable preparation of active compound, 1 part by weight of active compound is dissolved using the specified parts by weight of solvent and made up with water until the desired concentration is attained. 50 μl of the active compound preparation are transferred into microtitre plates and made up to a final volume of 200 μl with 150 μl of IPL41 insect medium (33%+15% sugar). Subsequently, the plates are sealed with parafilm, which a mixed population of green peach aphids (Myzus persicae) within a second microtitre plate is able to puncture and imbibe the solution through it. After 5 days, the efficacy in % is determined. 100% means that all the aphids have been killed; 0% means that no aphids have been killed.

SMILES	pest or weed control at 20 ppm
COc1ccc(Cl)c(S(=O)(=O)NC(=O)c2nc(-c3ccccc3Cl)c(C)[nH]2)c1 [Example 201]	100%
CCc1[nH]c(-c2cccc(C(F)(F)F)c2)nc1C(=O)NS(=O)(=O)c1ccccc1Cl [Example 247]	100%
CCc1[nH]c(-c2cc(Cl)cc(Cl)c2)nc1C(=O)NS(=O)(=O)c1ccccc1OC [Example 137]	90%
Cc1[nH]c(-c2cccc(C(C)C)c2)nc1C(=O)NS(=O)(=O)C(C)C [Example 620]	90%
Cc1cc(C(=O)NS(=O)(=O)c2ccc(Cl)s2)nn1-c1cc(Cl)ccc1Cl [Example 299]	90%
O=C(NS(=O)(=O)c1ccccc1Cl)c1c[nH]c(-c2c(F)cccc2F)n1 [Example 412]	90%
Cc1cccc(Cl)c1S(=O)(=O)NC(=O)c1cc(C)n(-c2cccc(Cl)c2Cl)n1 [Example 306]	100%
Cc1ccc(F)cc1S(=O)(=O)NC(=O)c1cc(C)n(-c2cccc(Cl)c2Cl)n1 [Example 305]	90%
COc1ccc(Cl)c(S(=O)(=O)NC(=O)c2nc(-c3c(F)cccc3F)[nH]c2C)c1 [Example 191]	90%
CSc1ccccc1-c1nc(C(=O)NS(=O)(=O)c2ccccc2C)cn1C [Example 214]	100%
CCc1[nH]c(-c2c(C)cccc2C)nc1C(=O)NS(=O)(=O)c1ccccc1Cl [Example 208]	90%
Cn1cc(C(=O)NS(=O)(=O)c2cnc(Cl)s2)nc1-c1c(F)cccc1F [Example 345]	90%
CCc1[nH]c(-c2cccc(Cl)c2)nc1C(=O)NS(=O)(=O)C(C)C [Example 131]	90%
COc1ccc(Cl)c(S(=O)(=O)NC(=O)c2nc(-c3ccc(Cl)c(Cl)c3)[nH]c2C)c1 [Example 615]	100%
Cc1nn(C)c(Cl)c1S(=O)(=O)NC(=O)c1cn(C)c(-c2c(F)cccc2F)n1 [Example 348]	100%
CCc1[nH]c(-c2cc(C)cc(C)c2)nc1C(=O)NS(=O)(=O)c1ccccc1C [Example 470]	100%
CCc1c(C(=O)NS(=O)(=O)c2ccccc2Br)nc(-c2c(F)cccc2F)n1C [Example 198]	100%
CCc1[nH]c(-c2cccc(C(F)(F)F)c2)nc1C(=O)NS(=O)(=O)C(C)C [Example 248]	100%
CSc1ccccc1-c1nc(C(=O)NS(=O)(=O)c2ccccc2Cl)cn1C [Example 213]	100%

SMILES	pest or weed control at 20 ppm
COc1ccc(Cl)c(S(=O)(=O)NC(=O)c2nc(-c3cccc(Cl)c3)[nH]c2C)c1 [Example 619]	100%
Cc1[nH]c(-c2cccc(C(C)C)c2)nc1C(=O)NS(=O)(=O)c1ccccc1Cl [Example 617]	100%
CCCOc1ccc(Cl)c(S(=O)(=O)NC(=O)c2cn(C)c(-c3c(F)cccc3F)n2)c1 [Example 180]	100%
Cn1cc(C(=O)NS(=O)(=O)c2ccccc2N)nc1-c1ccccc1Cl [Example 132]	100%
COc1ccccc1S(=O)(=O)NC(=O)c1cn(C)c(-c2ccccc2SC)n1 [Example 215]	90%
Cc1[nH]c(C(=O)NS(=O)(=O)c2ccccc2Cl)nc1-c1ccccc1Cl [Example 418]	90%
CCc1[nH]c(-c2cccc(Br)c2)nc1C(=O)NS(=O)(=O)c1ccccc1Cl [Example 136]	90%
CC(C)c1cccc(-c2nc(C(=O)NS(=O)(=O)c3ccccc3Cl)c(C(C)C)[nH]2)c1 [Example 612]	100%
CCc1[nH]c(-c2ccc(F)cc2F)nc1C(=O)NS(=O)(=O)c1ccccc1C [Example 245]	100%
COc1ccc(Br)cc1S(=O)(=O)NC(=O)c1nc(-c2c(F)cccc2F)n(C)n1 [Example 327]	90%
Cc1[nH]c(-c2cccc(Cl)c2)nc1C(=O)NS(=O)(=O)C(C)C [Example 236]	90%
CCc1[nH]c(-c2cccc(Cl)c2)nc1C(=O)NS(=O)(=O)c1cc(OC)ccc1Cl [Example 130]	90%
Cc1ccccc1S(=O)(=O)NC(=O)c1cnc(-c2c(F)cccc2F)n1C [Example 163]	100%
Cn1cc(C(=O)NS(=O)(=O)c2cc(C#N)ccc2Cl)nc1-c1c(F)cccc1F [Example 452]	100%
CCc1[nH]c(-c2ccc(Cl)cc2)nc1C(=O)NS(=O)(=O)C(C)C [Example 601]	90%
Cc1cccc(OS(C)(=O)=O)c1S(=O)(=O)NC(=O)c1cn(C)c(-c2c(F)cccc2F)n1 [Example 368]	90%
Cc1cc(C(=O)NS(=O)(=O)c2ccccc2Br)nn1-c1cccc(Cl)c1Cl [Example 302]	100%
COc1ccccc1S(=O)(=O)NC(=O)c1cn(C)c(-c2csc3ccccc23)n1 [Example 531]	90%
COc1ccc(OC)c(S(=O)(=O)NC(=O)c2cn(C)c(-c3ccccc3S(C)(=O)=O)n2)c1 [Example 509]	100%
